From publication PMC9516332 (Frontiers in Oncology, 2022)
Read-outs that look alike come from different tables or passages of the source.

Assays:
Experiment in all cases: Kinase panel profiling at 1 µmol/L (MSA or IMAP), percentage inhibition
Assay type in all cases: biochemical
[1] = target: T1, panel of 255 wild-type kinases (Homo sapiens, UniProt P29323); conditions: read-out: %-inhibition at 1 µmol/L, EPHB2
T1 sequence (P29323 19-1055): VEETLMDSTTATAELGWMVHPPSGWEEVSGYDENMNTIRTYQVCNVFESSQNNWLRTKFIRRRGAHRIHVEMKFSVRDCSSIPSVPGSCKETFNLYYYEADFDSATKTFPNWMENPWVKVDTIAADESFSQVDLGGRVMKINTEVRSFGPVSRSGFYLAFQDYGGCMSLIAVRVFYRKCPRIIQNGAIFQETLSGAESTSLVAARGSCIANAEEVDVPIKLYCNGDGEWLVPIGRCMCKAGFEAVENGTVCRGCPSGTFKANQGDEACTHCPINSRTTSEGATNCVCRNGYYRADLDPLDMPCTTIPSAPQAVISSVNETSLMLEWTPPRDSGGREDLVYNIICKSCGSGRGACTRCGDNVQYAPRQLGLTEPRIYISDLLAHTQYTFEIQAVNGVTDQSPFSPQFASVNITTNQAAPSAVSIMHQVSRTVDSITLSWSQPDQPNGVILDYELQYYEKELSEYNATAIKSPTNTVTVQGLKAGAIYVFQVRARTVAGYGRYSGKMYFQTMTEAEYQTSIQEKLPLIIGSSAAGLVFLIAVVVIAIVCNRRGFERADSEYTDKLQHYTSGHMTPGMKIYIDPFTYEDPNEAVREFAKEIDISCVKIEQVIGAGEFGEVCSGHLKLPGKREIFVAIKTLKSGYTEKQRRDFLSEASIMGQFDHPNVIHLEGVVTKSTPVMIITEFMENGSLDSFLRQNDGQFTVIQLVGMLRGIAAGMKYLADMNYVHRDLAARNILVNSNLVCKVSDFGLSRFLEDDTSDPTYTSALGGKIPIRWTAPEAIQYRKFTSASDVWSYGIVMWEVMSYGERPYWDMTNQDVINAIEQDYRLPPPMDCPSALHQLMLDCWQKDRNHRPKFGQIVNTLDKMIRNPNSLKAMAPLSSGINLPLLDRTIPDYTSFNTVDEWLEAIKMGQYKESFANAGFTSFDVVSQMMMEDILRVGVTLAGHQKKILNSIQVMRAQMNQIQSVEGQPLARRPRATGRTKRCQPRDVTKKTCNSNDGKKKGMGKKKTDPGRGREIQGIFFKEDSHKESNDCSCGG

[2] = target: T2, panel of 255 wild-type kinases (Homo sapiens, UniProt Q9NZJ5); conditions: read-out: %-inhibition at 1 µmol/L, PEK
T2 sequence (Q9NZJ5 30-1116): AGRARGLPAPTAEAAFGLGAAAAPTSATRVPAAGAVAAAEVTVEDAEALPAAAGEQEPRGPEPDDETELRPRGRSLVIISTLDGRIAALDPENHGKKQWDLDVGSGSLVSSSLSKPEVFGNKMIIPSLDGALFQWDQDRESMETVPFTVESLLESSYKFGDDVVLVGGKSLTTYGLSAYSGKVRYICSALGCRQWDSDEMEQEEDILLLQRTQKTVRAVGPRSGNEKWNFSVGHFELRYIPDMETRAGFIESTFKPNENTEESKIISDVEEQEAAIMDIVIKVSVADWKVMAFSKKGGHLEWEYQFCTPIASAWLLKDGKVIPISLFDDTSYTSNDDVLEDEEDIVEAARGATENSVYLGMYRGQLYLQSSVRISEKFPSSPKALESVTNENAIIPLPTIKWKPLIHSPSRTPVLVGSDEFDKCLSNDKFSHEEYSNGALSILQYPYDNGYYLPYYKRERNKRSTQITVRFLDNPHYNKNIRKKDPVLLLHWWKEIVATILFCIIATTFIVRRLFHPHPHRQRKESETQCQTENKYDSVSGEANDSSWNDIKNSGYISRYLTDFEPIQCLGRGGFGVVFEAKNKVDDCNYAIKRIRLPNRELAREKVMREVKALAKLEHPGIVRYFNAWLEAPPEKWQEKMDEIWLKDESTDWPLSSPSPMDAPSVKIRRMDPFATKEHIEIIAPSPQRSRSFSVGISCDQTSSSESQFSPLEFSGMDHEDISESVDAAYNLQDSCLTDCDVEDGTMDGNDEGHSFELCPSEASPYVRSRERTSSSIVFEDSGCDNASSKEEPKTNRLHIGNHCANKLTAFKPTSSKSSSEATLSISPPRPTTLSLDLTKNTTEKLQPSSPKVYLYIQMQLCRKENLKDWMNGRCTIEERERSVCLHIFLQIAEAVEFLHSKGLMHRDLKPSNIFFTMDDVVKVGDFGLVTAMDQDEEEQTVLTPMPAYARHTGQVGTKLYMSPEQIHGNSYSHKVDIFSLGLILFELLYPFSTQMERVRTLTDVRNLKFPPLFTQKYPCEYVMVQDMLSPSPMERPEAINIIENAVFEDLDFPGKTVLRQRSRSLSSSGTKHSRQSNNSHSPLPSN

[3] = target: T3, panel of 255 wild-type kinases (Homo sapiens, UniProt Q9NRA0); conditions: read-out: %-inhibition at 1 µmol/L, SPHK2
T3 sequence (Q9NRA0 1-654): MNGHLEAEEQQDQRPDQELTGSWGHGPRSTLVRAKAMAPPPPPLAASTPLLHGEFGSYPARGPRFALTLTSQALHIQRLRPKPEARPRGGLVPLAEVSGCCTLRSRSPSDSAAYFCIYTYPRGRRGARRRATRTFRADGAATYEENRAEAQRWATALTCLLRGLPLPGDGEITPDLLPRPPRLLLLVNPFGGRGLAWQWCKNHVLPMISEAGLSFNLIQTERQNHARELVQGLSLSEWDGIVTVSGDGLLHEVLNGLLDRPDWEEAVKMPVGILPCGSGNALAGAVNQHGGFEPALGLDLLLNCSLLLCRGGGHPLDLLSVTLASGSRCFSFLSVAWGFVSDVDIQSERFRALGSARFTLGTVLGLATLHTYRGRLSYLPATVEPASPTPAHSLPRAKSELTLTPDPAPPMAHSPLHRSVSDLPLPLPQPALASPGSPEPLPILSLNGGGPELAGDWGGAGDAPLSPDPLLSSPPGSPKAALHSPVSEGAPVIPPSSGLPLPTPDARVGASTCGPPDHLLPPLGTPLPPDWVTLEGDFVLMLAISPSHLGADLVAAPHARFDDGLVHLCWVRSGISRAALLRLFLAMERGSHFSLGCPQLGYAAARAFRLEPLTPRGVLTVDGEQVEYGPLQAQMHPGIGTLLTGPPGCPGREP

[4] = kinase EPHB2, 1 µmol/L single concentration
[5] = kinase PEK, 1 µmol/L single concentration
[6] = kinase SPHK2, 1 µmol/L single concentration

Compound	inhibition at 1 µM [1, 4] [%]	inhibition at 1 µM [2, 5] [%]	inhibition at 1 µM [3, 6] [%]	inhibition at 1 µM [1] [%]	inhibition at 1 µM [2] [%]	inhibition at 1 µM [3] [%]
Cc1nc(NC(=O)N2CCC[C@H]2C(N)=O)sc1-c1ccnc(C(C)(C)C(F)(F)F)c1 [alpelisib]	1.07	10	6.5	–	–	–
Cn1cc(-c2cc3c(N4CCN(c5ncc([C@@](C)(N)c6ccc(F)cc6)cn5)CC4)ncnn3c2)cn1 [avapritinib]	31	1.51	0.914	–	–	–
Cn1cnc2c(F)c(Nc3ccc(Br)cc3F)c(C(=O)NOCCO)cc21 [binimetinib]	3.33	4.67	-7.55	–	–	–
CNC(=O)c1ccc(-c2cnc3ncc(Cc4ccc5ncccc5c4)n3n2)cc1F [capmatinib]	–	–	–	-5	4.25	-2
COc1cc2ncnc(Nc3ccc(F)c(Cl)c3)c2cc1NC(=O)/C=C/CN1CCCCC1 [dacomitinib]	51	2.82	7.54	–	–	–
C[C@H](Nc1ncnc2nc[nH]c12)c1cc2cccc(Cl)c2c(=O)n1-c1ccccc1 [duvelisib]	2	5.65	11	–	–	–
COC(=O)N[C@@H](C)CNc1nccc(-c2cn(C(C)C)nc2-c2cc(Cl)cc(NS(C)(=O)=O)c2F)n1 [encorafenib]	5.43	9	-12	–	–	–
CN1CCN(c2ccc(C(=O)Nc3n[nH]c4ccc(Cc5cc(F)cc(F)c5)cc34)c(NC3CCOCC3)c2)CC1 [entrectinib]	64	0.561	20	–	–	–
CCc1nc(C(N)=O)c(Nc2ccc(N3CCC(N4CCN(C)CC4)CC3)c(OC)c2)nc1NC1CCOCC1 [gilteritinib]	75	–	9	–	–	–
CCN1CCN(c2ccc(Nc3cc(N(C)C(=O)Nc4c(Cl)c(OC)cc(OC)c4Cl)ncn3)cc2)CC1 [infigratinib]	-0.114	49	2	–	–	–
O=C(Nc1cnn2ccc(N3CCC[C@@H]3c3cc(F)ccc3F)nc12)N1CC[C@H](O)C1 [larotrectinib]	-0.574	4	-1.56	–	–	–
C[C@H]1Oc2cc(cnc2N)-c2c(nn(C)c2C#N)CN(C)C(=O)c2ccc(F)cc21 [lorlatinib]	14	-1.65	10	–	–	–
CCN1C(=O)N(c2c(F)c(OC)cc(OC)c2F)Cc2cnc3[nH]c(CN4CCOCC4)cc3c21 [pemigatinib]	-0.799	17	-5.31	–	–	–
FC(F)(F)c1ccc(CNc2ccc(Cc3c[nH]c4ncc(Cl)cc34)cn2)cn1 [pexidartinib]	8	-10	7	–	–	–
CO[C@]1(C(=O)N[C@@H](C)c2ccc(-n3cc(F)cn3)nc2)CC[C@H](c2nc(C)cc(Nc3cc(C)[nH]n3)n2)CC1 [pralsetinib]	35	2.26	-2.48	–	–	–
CCn1c(=O)c(-c2cc(NC(=O)Nc3ccccc3)c(F)cc2Br)cc2cnc(NC)cc21 [ripretinib]	75	9	-10	–	–	–
COc1ccc(CN2C3CC2CN(c2ccc(-c4cc(OCC(C)(C)O)cn5ncc(C#N)c45)cn2)C3)cn1 [selpercatinib]	64	2.16	-3.75	–	–	–
Cn1cnc2c(F)c(Nc3ccc(Br)cc3Cl)c(C(=O)NOCCO)cc21 [selumetinib]	-0.445	-0.188	-4	–	–	–
Cc1cc(Nc2ncnc3ccc(NC4=NC(C)(C)CO4)cc23)ccc1Oc1ccn2ncnc2c1 [tucatinib]	2.14	1.59	0.368	–	–	–
C=CC(=O)N1CCC([C@@H]2CCNc3c(C(N)=O)c(-c4ccc(Oc5ccccc5)cc4)nn32)CC1 [zanubrutinib]	-1.07	2	-6.64	–	–	–
